We go through five compounds from patent US7250423B2, “Methods for synthesizing heterocycles and therapeutic use of the heterocycles for cancers” (priority 2001, dated 2007).

Common to all, as to type: cell-based, human
In one test the test system is MCF7 (Breast). As to the kind of experiment: 3-cell line, one dose primary anticancer assay (NCI). The settings on record: 1.000E−04 Molar, 48 hours, percent of growth vs untreated control cells; negative numbers indicate cell kill. As for the experimental part: (§1) The following cell culture tests were performed by the National Cancer Institute of the National Institute of Health. The compounds listed below have been evaluated in the 3-cell line, one dose primary anticancer assay. The compounds which pass our criteria for activity in this assay will be scheduled automatically for evaluation against the full panel of 60 tumor cell lines. For the past 10 years, the Development Therapeutic Program (DTP), Division of Cancer Treatment and Diagnosis (DCTD), National Cancer Institute (NCI) has used an in vitro model consisting of 60 human tumor cell lines as the primary anticancer screen [Ref: J. Natl, Cancer Inst., 83:757-766, 1991].
(§2) 95% of the actives from the 60 cell line screen can be identified using only three cell lines. For this reason, the DTP has now begun using, as its primary anticancer assay, a 3-cell line panel consisting of the MCF7 (Breast), NCI-H460 (Lung), and SF-268 (CNS). This 3-cell line, one-dose assay has been in use by DTP for several years for the evaluation of combinatorial libraries and has proven to be an effective pre-screen.
(§3) In the current protocol, each cell line is inoculated and preincubated on a microtiter plate. Test agents are then added at a single concentration and the culture incubated for 48 hours. End-point determinations are made with alamar blue (Biotechniques 21(5) 780-782 (1996)). Results for each test agent are reported as the percent of growth of the treated cells when compared to the untreated control cells. Compounds which reduce the growth of any one of the cell lines to approximately 32% or less (negative numbers indicate cell kill) are passed on for evaluation in the full panel of 60 cell lines over a 5-log dose range.

Test [1] concerns NCI-H460 (Non Small Cell Lung). Described as above. The settings on record: 1.000E−04 Molar, 48 hours, percent of growth vs untreated control cells; negative numbers indicate cell kill. As for the experimental part:
as §1, §2, §3

The subject of another test is SF-268 (CNS). The test is described as above. The settings on record: 1.000E−04 Molar, 48 hours, percent of growth vs untreated control cells; negative numbers indicate cell kill. As for the experimental part: as §1, §2, §3
For the next test, the system named is DU-145 (prostate cancer). As to the kind of experiment: 60 cell-line tests. To be noted: even at 1.000E-08 molar concentration. As for the experimental part:
as §1, §3

The next test has as its system other cell lines. As to the kind of experiment: 60 cell-line tests. To be noted: other cell lines of the 60 cell-line panel. As for the experimental part: as §1, §3
In the next test the test system is SF-539 (CNS cancer). As to the kind of experiment: 60 cell-line tests. To be noted: even at 1.000E-08 molar concentration. As for the experimental part:
as §1, §3

The test system of test [2] is EKVX (non-small cell lung cancer). As to the kind of experiment: 60 cell-line tests. To be noted: even at 1.000E-08 molar concentration. As for the experimental part:
as §1, §3

Another test relates to PC-3 (prostate cancer). As to the kind of experiment: 60 cell-line tests. As for the experimental part:
as §1, §3

The test system of the next test is Delta cancer cell lines. As to the kind of experiment: 60 cell-line tests. As for the experimental part:
as §1, §3

The subject of test [3] is MDA-MB-435 (breast cancer). As to the kind of experiment: 60 cell-line tests. The settings on record: even at 1.000E-08 molar concentration. As for the experimental part: as §1, §3
For the next test, the system named is HCT (colon cancer). As to the kind of experiment: 60 cell-line tests. As for the experimental part: as §1, §3
The next test relates to CAKI-1 (renal cancer). As to the kind of experiment: 60 cell-line tests. As for the experimental part:
as §1, §3

Test [4] relates to NCI-H522 (non-samll cell lung cancer). As to the kind of experiment: 60 cell-line tests. As for the experimental part: as §1, §3
In test [5] the test system is CCRF-CEM (and other leukemia cancer cells). As to the kind of experiment: 60 cell-line tests. As for the experimental part: as §1, §3

As for “6,6a,7,8-tetrahydro-7-(2-o-hydroxyphenyl)ethyl-2H-benzopyrano[3,2-a]quinoline [4-1]”, in the test with MCF7 (Breast), the “Growth Percentage (Breast) MCF7” value came out at 0%. In addition, in test [1], the “Growth Percentage (Non Small Cell Lung) NCI-H460” value was 0%. Further, in the test with SF-268 (CNS), the “Growth Percentage (CNS) SF-268” value was 0%.

As for `OCCCCC1Nc2ccc(Nc3ccccc3)cc2C2OCCCC12` (stereo not shown) [3-1, 3,4,4a,5,6,10b-hexahydro-5-(4-hydroxybutyl)-9-phenylamino-2H-pyrano[3,2-c]quinoline], the “killing of cancer cells” value was “highly potent and selectively killed” in the test with DU-145 (prostate cancer); “highly potent and selectively killed” in the test on SF-539 (CNS cancer); “highly potent and selectively killed” in test [2]; “highly potent and selectively killed” in the test with PC-3 (prostate cancer) (even at 1.000E-08 molar concentration); “highly potent and selectively killed” with Delta cancer cell lines (Delta cancer cell lines, even at 1.000E-08 molar concentration); “highly potent and selectively killed” in [3]. Besides, in the test on other cell lines, the “effect against other cell lines” value is reported as “very week effect”. For the same compound, in the test with MCF7 (Breast), the “Growth Percentage (Breast) MCF7” value was −1%. In test [1], the “Growth Percentage (Non Small Cell Lung) NCI-H460” value is given as −1%. In addition, the “Growth Percentage (CNS) SF-268” value in the test on SF-268 (CNS) is listed as −1%.

With `OCCCC1Nc2ccc(Nc3ccccc3)cc2C2OCCC12` (stereo not shown) [3-2, 2,3,3a,4,5,9b-hexahydro-4-(3-hydroxypropyl)-8-phenylamino-furano[3,2-c]quinoline], the “Growth Percentage (Breast) MCF7” value with MCF7 (Breast) came to 0%. Besides, in [1], the “Growth Percentage (Non Small Cell Lung) NCI-H460” value is reported as 57%. For the same compound, the “Growth Percentage (CNS) SF-268” value with SF-268 (CNS) is 22%.

As to `CN(C)c1ccc2c(c1)C1OCCC1C(CCCO)N2` (stereo not shown) [3-3, 2,3,3a,4,5,9b-hexahydro-4-(3-hydroxypropyl)-8-dimethylamino-furano[3,2-c]quinoline], the “Growth Percentage (Breast) MCF7” value in the test with MCF7 (Breast) is reported as 7%. For the same compound, in test [1], the “Growth Percentage (Non Small Cell Lung) NCI-H460” value was 100%. Besides, the “Growth Percentage (CNS) SF-268” value with SF-268 (CNS) was 77%.

As to `OCCCCC1Nc2ccc(O)cc2C2OCCCC12` (stereo not shown) [5-1, 3,4,4a,5,6,10b-hexahydro-5-(4-hydroxybutyl)-9-hydroxy-2H-pyrano[3,2-c]quinoline], the “selectivity for cancer cells” value with HCT (colon cancer) was “moderately selective”; in the test with CAKI-1 (renal cancer), “moderately selective”; in test [4], “moderately selective”; in test [5], “moderately selective”; in the test on PC-3 (prostate cancer), “highly selective”; in the test with Delta cancer cell lines (Delta cancer), “highly selective”. For the same compound, the “Growth Percentage (Breast) MCF7” value in the test on MCF7 (Breast) came to 0%. Besides, in test [1], the “Growth Percentage (Non Small Cell Lung) NCI-H460” value stood at 29%. The “Growth Percentage (CNS) SF-268” value in the test on SF-268 (CNS) was determined as 2%.
